# Measurements as given in patent publication US4940730A, “Angiogenesis enhancer” (Takeda Chemical Industries, Ltd., priority 1987, dated 1990).
# Where a name gives a salt, the structure may show the parent alone.
# What was measured:
# [1] = system: hen's chlorioallantoic membrane; assay: CAM (Chorio Allantoic Membrane) assay; type: in vivo; conditions: for ED50: amount of drug which gave the numerical value 5 (positive rate) in CAM assay; for Positive rate of CAM assay: average neovascularization score (++=10, +=7, °=3, -=0), 3 days on membrane
# Experimental: CAM (Chorio Allantoic Membrane) assay was conducted on various compounds of the present invention. The technique of the CAM assay was that modified somewhat on Auerbach's method [Developmental Biology, 41, 391 (1974)]. More specifically, hen's fertile eggs were incubated for three days at 37° C. (Napco carbon dioxide incubator-6300 was employed, CO2 :0% H2 O saturated). Polypropylene-made discs (6 mm. diameter) were spotted with a chloroform:ethanol (1:4 by volume) solution of each compound so that the concentration may be 0, 0.25, 0.64, 1.6, 4, 10 and 25 ug, respectively. The test materials were air-dried in a clean bench, which were then placed quietly on hen's chlorioallantoic membrane, followed by incubation at 37° C. for further three days. Then, the vascularization state was observed. In the tables, the positive rates were calculated on the following basis. Namely, degrees of neovascularization were determined as ++ for very strong, + for strong, ° for weak and - for negative, and they were numerized as 10, 7, 3 and 0, respectively. The average numerical value in each of the concentrations of the respective samples was made as positive rate. Further, the amount of the drug which gave the numerical value 5 in each sample was shown as ED50 value (ug/disc).
# cornea = assay: Rat cornea test; type: in vivo, Wister rats; conditions: after two weeks; for elongation of blood vessels: rat cornea
# Excerpt: Namely, Wister rats (14-week old, male) were anesthetized, then pockets (about 2×3 mm in size) were provided in the cornea. […] The test samples enveloped were erucamide, lauramide and erucic acid, and, as the control, Elvax®-40 in which nothing was enveloped was used.
# dorsal air-sack = assay: Mouse dorsal air-sack method; type: in vivo, ICR mice; design: key to blood vessel elongation action: +, ++; blood vessel elongation action positive; +, ++; blood vessel elongation action positive; -: blood vessel elongation action negative; conditions: ten days later; for blood vessel elongation action: 1 mg test sample enveloped in Elvax-40
# Experimental: Experimental work was conducted in accordance with the method of Yoshii et al. [Igaku no ayumi, 122 (No. 10), p. 890 (1982)]. More specifically, ICR mice (9-week old, males) were anesthetized, and the hair at the dorsal site was shaved with clippers. The site was sterilized with alcohol, and an injection needle was inserted at the site located at a distance of 1 cm from the tail side. Through the needle, about 20 ml of air was introduced. Then, the air in the air-sack (on the tail side) was drawn out. Test samples enveloped in Elvax®-40 were inserted into both, left and right, sides (at one of the both sides, only Elvax®-40 as the control). The incised site was closed, and, ten days later, the site was incised again and the state of elongation of blood vessel was observed. The test samples enveloped were erucamide, lauramide and erucic acid, and the results compared with one another.
# [2] = amount of sample 0.64 μg per disc
# [3] = amount of sample 1.6 μg per disc
# [4] = amount of sample 10 μg per disc
# [5] = amount of sample 25 μg per disc
# [6] = 30 μg test material in Elvax-40 gel in corneal pocket
Structure (SMILES),ED50 [1],"Positive rate of CAM assay [1, 2]","Positive rate of CAM assay [1, 3]",Positive rate of CAM assay ([1]; amount of sample 4 μg per disc),"Positive rate of CAM assay [1, 4]","Positive rate of CAM assay [1, 5]",Action of elongation of blood vessel (cornea; [6]),elongation of blood vessels (cornea),Action of elongation of blood vessel (cornea; 60 μg test material in Elvax-40 gel in corneal pocket),blood vessel elongation action (dorsal air-sack),blood vessel elongation (dorsal air-sack; mouse dorsal air-sack)
CCCCCCCC/C=C/CCCCCCCCCCCC(=O)O [Brassidic acid],1.82 ug/disc,3.5,6,6,9.3,10,,,,,
CCCCCCCC/C=C\CCCCCCCCCCCC(=O)O [Erucic acid],4.69 ug/disc,1.4,2.8,4,8.2,9.4,++,strong elongation action,,,
CCCCCCCC/C=C\CCCCCCCCCCCCN [1-Amino-13-docosene.HCl],0.94 ug/disc,3.4,7.0,8.8,10,> 10,,,,,
CCCCCCCCCCCCCCCCCCCCCC(N)=O [Behenamide],2.76 ug/disc,0,1.8,7.6,10,10,,,,,
CCCCCCCCCCCCCCCCCC(=O)O [Stearic acid],7.14 ug/disc,0,0,1.8,6.8,9.4,,,,,
"CCCCCCCC/C=C\CCCCCCCCCCCC(=O)Nc1cccc(C(=O)O)c1 [m-aminobenzoic acid, N-ercoyl-3-aminobenzoic acid]",1.28 ug/disc,2.0,6.0,7.4,10,10,,,,,
CCCCCCCCCCCCCCCCCCCC(N)=O [Arachidamide],11.5 ug/disc,0,2.8,3.4,4.6,7.4,,,,,
"CCCCCCCCCCCC(N)=O [Lauramide, reference compound]",,0.3,0.7,0,0,0.3,,,-,-,
CCCCCCCCCCCCCC(=O)O [Myristic acid],25.0 ug/disc,0,0,0.8,4,5,,,,,
CCCCCCCCCCCCCCCCCCCCCCO [Docosan-1-ol],2.55 ug/disc,0,1.8,8.3,10,10,,,,,
CCCCCCCC/C=C\CCCCCCCCCCCC(N)=O [Erucamide],2.13 ug/disc,1.4,3.4,9.4,10,10,++,strong elongation action,,++,strong action of blood vessel elongation
CCCCCCCCCCCCCCCCCCCCCCCC(=O)O [Lignoceric acid],4.61 ug/disc,1.4,2,4.6,7.6,6.2,,,,,
